Experimental data: ChEMBL document CHEMBL1201862, “PubChem BioAssay data set” (2004)
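Each compound was tested at five concentrations against cells in 96-well plates for 48 hours. At the GI50, growth is halved.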 Calls of active or inactive are those of the source. Cut-off read from the data, not from the text of the source: active = GI50 up to about 1.1 µM and inactive = higher. Where a SMILES comes first, the peptide text is derived from it. The star is where a group is joined. Cbz = O=C(OCc1ccccc1)*

Experiments:
Experiment in all cases: growth of human tumour cells (NCI), 48 h
A549 = system: A549
COLO 205 = system: COLO 205
DU-145 = system: DU-145
HCT-15 = system: HCT-15
HOP-92 = system: HOP-92
HT-29 = system: HT-29
M14 = system: M14
MDA-MB-231 = system: MDA-MB-231
Malme-3M = system: Malme-3M
NCI/ADR-RES = system: NCI/ADR-RES
SF-295 = system: SF-295
SK-MEL-28 = system: SK-MEL-28
SK-MEL-5 = system: SK-MEL-5
SK-OV-3 = system: SK-OV-3
SN12C = system: SN12C
SNB-19 = system: SNB-19
T47D = system: T47D
UACC-62 = system: UACC-62
IGROV-1 = system: IGROV-1
BT-549 = system: BT-549

| SMILES | GI50 (A549) | GI50 (COLO 205) | GI50 (DU-145) | GI50 (HCT-15) | GI50 (HOP-92) | GI50 (HT-29) | GI50 (M14) | GI50 (MDA-MB-231) | GI50 (Malme-3M) | GI50 (NCI/ADR-RES) | GI50 (SF-295) | GI50 (SK-MEL-28) | GI50 (SK-MEL-5) | GI50 (SK-OV-3) | GI50 (SN12C) | GI50 (SNB-19) | GI50 (T47D) | GI50 (UACC-62) | GI50 (IGROV-1) | GI50 (BT-549) |
| --- | --- | --- | --- | --- | --- | --- | --- | --- | --- | --- | --- | --- | --- | --- | --- | --- | --- | --- | --- | --- |
| CCCCc1ccc(-n2c(C)c(COC(=O)NC)c(COC(=O)NC)c2C)cc1 | 6.08 µM (inactive) | 7.21 µM (inactive) | 6.98 µM (inactive) | 6.18 µM | 2.74 µM (inactive) | 11.1 µM (inactive) | 6.12 µM (inactive) | 4.9 µM (inactive) | 6.07 µM (inactive) | 5.55 µM (inactive) | 8.61 µM (inactive) | 19.1 µM (inactive) | 11.4 µM (inactive) | 3.76 µM (inactive) | 3.54 µM (inactive) | 13.9 µM (inactive) | 5.66 µM (inactive) | 2.29 µM (inactive) |  |  |
| NC(=O)C(N)CC12CC3CC(CC(C3)C1)C2 (configuration not stated) | 45.6 µM (inactive) |  | 12.6 µM (inactive) | 31.6 µM | 15.5 µM (inactive) | 28.1 µM (inactive) | 19.3 µM (inactive) | 14 µM (inactive) |  | 25.2 µM (inactive) | 23.3 µM (inactive) | 20.1 µM (inactive) | 15.2 µM (inactive) | 33.3 µM (inactive) | 21 µM (inactive) | 23.7 µM (inactive) |  | 14.5 µM (inactive) | > 10 µM (inactive) |  |
| Nc1ncnc2c1nnn2C1CCC(CP(=O)(O)O)C1 (configuration not stated) | > 100 µM (inactive) | > 100 µM (inactive) | > 100 µM (inactive) | > 100 µM | > 100 µM (inactive) | > 100 µM (inactive) | > 100 µM (inactive) | > 100 µM (inactive) | > 100 µM (inactive) | > 100 µM (inactive) | > 100 µM (inactive) | > 100 µM (inactive) | > 100 µM (inactive) | > 100 µM (inactive) | > 100 µM (inactive) | > 100 µM (inactive) | > 100 µM (inactive) | > 100 µM (inactive) | > 100 µM (inactive) |  |
| CSc1nncc(-c2cc3c(c(SC)n2)CCC3)n1 | > 100 µM (inactive) | > 100 µM (inactive) | > 100 µM (inactive) | > 100 µM |  | > 100 µM (inactive) | > 100 µM (inactive) | 18.9 µM (inactive) |  | 69.5 µM (inactive) | > 100 µM (inactive) | > 100 µM (inactive) | > 100 µM (inactive) | > 100 µM (inactive) | > 100 µM (inactive) | > 100 µM (inactive) |  | > 100 µM (inactive) | 2.4 µM (inactive) | > 100 µM (inactive) |
| COC(=O)[C@](C)(Cc1ccccc1)NC(=O)[C@@H](C)N1[C@@H](c2ccccc2)COC1(C)C | 63.8 µM (inactive) | 20.1 µM (inactive) |  | 37.7 µM | 36 µM (inactive) | 46.9 µM (inactive) | 63.7 µM (inactive) | 47 µM (inactive) | 44.6 µM (inactive) | 24.9 µM (inactive) | 53 µM (inactive) | > 100 µM (inactive) | 43.5 µM (inactive) | > 100 µM (inactive) |  | > 100 µM (inactive) | 46.5 µM (inactive) | 63.5 µM (inactive) | 51.2 µM (inactive) | 48.2 µM (inactive) |
| COc1ccc(C(=C[N+](=O)[O-])c2ccc(OC)cc2)cc1 | 13.6 µM (inactive) | 9.79 µM (inactive) |  | 8.05 µM | 25.4 µM (inactive) | 4.52 µM (inactive) | 11.9 µM (inactive) |  | 13.3 µM (inactive) |  | 5.96 µM (inactive) | 16.2 µM (inactive) | 28.6 µM (inactive) | 14.3 µM (inactive) | 24 µM (inactive) | 22.2 µM (inactive) |  | 9.55 µM (inactive) | 9.42 µM (inactive) |  |
| CN1C(=O)N(c2ccccc2)C2(CCN(CC3COc4ccccc4O3)CC2)C1=O (configuration not stated) | > 100 µM (inactive) | 87.5 µM (inactive) | > 100 µM (inactive) | > 100 µM | 66.5 µM (inactive) | 95.1 µM (inactive) | > 100 µM (inactive) | > 100 µM (inactive) | > 100 µM (inactive) | > 100 µM (inactive) | > 100 µM (inactive) | > 100 µM (inactive) | 71.6 µM (inactive) |  | > 100 µM (inactive) | 5.71 µM (inactive) | > 100 µM (inactive) | > 100 µM (inactive) | > 100 µM (inactive) |  |
| CC(CCC#N)(CCC#N)C(=O)CC(O)(C(F)(F)F)C(F)(F)F | 10.1 µM (inactive) | 2.28 µM (inactive) | 11.4 µM (inactive) | 2.28 µM | 4.86 µM (inactive) | 6.65 µM (inactive) | 2.1 µM (inactive) | 4.06 µM (inactive) | 5.02 µM (inactive) | 5.94 µM (inactive) | 18.2 µM (inactive) | 11 µM (inactive) | 13.3 µM (inactive) | 47 µM (inactive) | 7.24 µM (inactive) | 23.7 µM (inactive) | 4.22 µM (inactive) | 6.19 µM (inactive) | 13.2 µM (inactive) |  |
| COc1cc2c(cc1OC)C1(c3ccccc3)ON=C(c3ccccc3)N1CS2 (configuration not stated) | > 100 µM (inactive) | > 100 µM (inactive) |  | > 100 µM | 39.4 µM (inactive) | 55.2 µM (inactive) | 46 µM (inactive) |  | > 100 µM (inactive) |  | 60.1 µM (inactive) | > 100 µM (inactive) | > 100 µM (inactive) | > 100 µM (inactive) | > 100 µM (inactive) | > 100 µM (inactive) |  | 45.8 µM (inactive) | > 100 µM (inactive) |  |
| CC(=O)NC(NCCN)(c1ccccc1)c1ccccc1 | > 100 µM (inactive) | > 100 µM (inactive) | > 100 µM (inactive) | > 100 µM | 16.9 µM (inactive) | > 100 µM (inactive) | > 100 µM (inactive) | > 100 µM (inactive) | > 100 µM (inactive) | > 100 µM (inactive) | > 100 µM (inactive) | > 100 µM (inactive) | > 100 µM (inactive) | > 100 µM (inactive) | > 100 µM (inactive) | > 100 µM (inactive) |  |  |  |  |
| Cc1ccc(S(=O)(=O)N2CC3OC(C)(C)OC3C2CO)cc1 (configuration not stated) | > 100 µM (inactive) | > 100 µM (inactive) | > 100 µM (inactive) | > 100 µM | > 100 µM (inactive) | > 100 µM (inactive) | > 100 µM (inactive) | > 100 µM (inactive) | > 100 µM (inactive) | > 100 µM (inactive) | > 100 µM (inactive) | > 100 µM (inactive) | > 100 µM (inactive) | > 100 µM (inactive) | > 100 µM (inactive) |  | > 100 µM (inactive) |  | > 100 µM (inactive) |  |
| O=C(CN1CCOCC1)c1ccc2c(c1)oc(=O)n2CCN1CCCCC1 |  | > 100 µM (inactive) | > 100 µM (inactive) | > 100 µM |  | > 100 µM (inactive) | > 100 µM (inactive) | > 100 µM (inactive) | > 100 µM (inactive) | > 100 µM (inactive) | > 100 µM (inactive) | > 100 µM (inactive) | > 100 µM (inactive) | > 100 µM (inactive) | > 100 µM (inactive) | > 100 µM (inactive) |  | > 100 µM (inactive) | > 100 µM (inactive) | > 100 µM (inactive) |
| COc1ccc(NC(=O)c2cc(NC(=O)/C=C/c3ccccc3)c(OC)c(OC)c2)cc1 | 7.55 µM (inactive) | 22.5 µM (inactive) | 16.3 µM (inactive) | 3.99 µM | 16.8 µM (inactive) | 8.41 µM (inactive) | > 100 µM (inactive) | 9.55 µM (inactive) | 18.2 µM (inactive) | 28.5 µM (inactive) | 17.4 µM (inactive) | 20.4 µM (inactive) | 5.82 µM (inactive) | 51.5 µM (inactive) | 6.3 µM (inactive) | 61.1 µM (inactive) | 8.91 µM (inactive) | 3.9 µM (inactive) |  |  |
| Cc1cc2occ(C)c(=O)c2c2c1OC(C)(C)S2 | > 100 µM (inactive) | > 100 µM (inactive) |  | > 100 µM | 55.3 µM (inactive) | 97.9 µM (inactive) | > 100 µM (inactive) |  | > 100 µM (inactive) |  | > 100 µM (inactive) | > 100 µM (inactive) | > 100 µM (inactive) | > 100 µM (inactive) | > 100 µM (inactive) | > 100 µM (inactive) |  | > 100 µM (inactive) | > 100 µM (inactive) |  |
| Nc1nc2ccc(OCC(O)CN3CCCCC3)cc2[n+]([O-])n1 (configuration not stated) | > 100 µM (inactive) | > 100 µM (inactive) | > 100 µM (inactive) | > 100 µM | > 100 µM (inactive) | > 100 µM (inactive) | > 100 µM (inactive) | > 100 µM (inactive) | > 100 µM (inactive) | > 100 µM (inactive) | > 100 µM (inactive) | > 100 µM (inactive) | > 100 µM (inactive) |  | > 100 µM (inactive) | > 100 µM (inactive) |  |  |  | > 100 µM (inactive) |
| COc1ccc(CNc2cc(OC)c(OC)c(OC)c2)cc1 | 6.11 µM (inactive) | 2.84 µM (inactive) |  | 3.52 µM | 7.48 µM (inactive) | 3.66 µM (inactive) | 6.82 µM (inactive) |  | 7.03 µM (inactive) |  | 4.18 µM (inactive) | 2.94 µM (inactive) | 3.35 µM (inactive) | 5.65 µM (inactive) | 7.71 µM (inactive) | 6.85 µM (inactive) |  | 3.32 µM (inactive) | 5.89 µM (inactive) |  |
| CCOC(=O)CNC(=O)C(C)NC(=O)C(NC(=O)OCc1ccccc1)C(C)C (stereo not drawn) (Cbz-Val-Ala-Gly-OEt; configuration not given here) | > 100 µM (inactive) | > 100 µM (inactive) | > 100 µM (inactive) | > 100 µM | > 100 µM (inactive) | > 100 µM (inactive) | > 100 µM (inactive) |  | > 100 µM (inactive) | > 100 µM (inactive) | > 100 µM (inactive) | > 100 µM (inactive) | > 100 µM (inactive) | > 100 µM (inactive) | > 100 µM (inactive) | > 100 µM (inactive) |  | > 100 µM (inactive) | > 100 µM (inactive) | 58.7 µM (inactive) |
